Key:
[1] = test system: Plasmodium vinckei; test: Antimalarial activity against Plasmodium vinckei infected in po dosed Swiss mouse; type: functional
[2] = Oral bioavailability in rat; type: ADME, organism-based; conditions: in vivo
[3] = test system: Plasmodium falciparum; test: Antiplasmodial activity against drug-sensitive Plasmodium falciparum 3D7; type: functional, organism-based
[4] = test system: Plasmodium berghei; test: Antimalarial activity against Plasmodium berghei ANKA infected in mouse assessed as reduction in parasitemia at 40 mg/kg, ip relative to control; type: functional; conditions: route intraperitoneal
[5] = test system: Plasmodium falciparum; test: Antiplasmodial activity against erythrocytic stage of multidrug-resistant Plasmodium falciparum K1; type: functional, organism-based
[6] = test system: Plasmodium; test: Antimalarial activity against Plasmodium infected in mouse; type: functional
[7] = test system: Plasmodium falciparum; test: Antiplasmodial activity against chloroquine-resistant Plasmodium falciparum K1; type: functional, organism-based
[8] = Half life in po dosed Sprague-Dawley rat by LC/MS/MS analysis; type: ADME, organism-based; conditions: in vivo
[9] = Oral bioavailability in Sprague-Dawley rat; type: ADME, organism-based; conditions: in vivo
[10] = test system: Plasmodium falciparum; test: Antimalarial activity against Plasmodium falciparum VS/1 expressing DHFR quadruple mutation infected in po dosed SCID mouse assessed as reduction in parasitemia administered 3 days post infection measured on day 6; type: functional; conditions: VS/1, po
[11] = test system: Plasmodium falciparum; test: Antiplasmodial activity against Plasmodium falciparum VS/1 expressing DHFR quadruple mutation by [3H]-hypoxanthine incorporation assay; type: functional, organism-based
[12] = test system: Plasmodium falciparum; test: Antiplasmodial activity against wild type Plasmodium falciparum TM4 by [3H]-hypoxanthine incorporation assay; conditions: TM4, 3 h
[13] = test system: Plasmodium falciparum; test: Antimalarial activity against Plasmodium falciparum infected in mouse; type: functional
[14] = test system: Plasmodium falciparum; test: Antiplasmodial activity against drug-sensitive Plasmodium falciparum 3D7 after 72 hrs by SYBR Green staining-based fluorescence assay; type: functional, organism-based; conditions: 3D7, 72 h
[15] = test system: Plasmodium falciparum; test: Antiplasmodial activity against multidrug-resistant Plasmodium falciparum Dd2 after 72 hrs by SYBR Green staining-based fluorescence assay; type: functional, organism-based; conditions: Dd2, 72 h
[16] = test system: Plasmodium berghei; test: Antimalarial activity against erythrocytic stage of Plasmodium berghei infected in po dosed mouse administered for 3 days; type: functional; conditions: 72 h
[17] = test system: Plasmodium falciparum; test: Antimalarial activity against Plasmodium falciparum infected in SCID mouse; type: functional
[18] = test system: Plasmodium falciparum; test: Antiplasmodial activity against drug-sensitive Plasmodium falciparum NF54; type: functional, organism-based
[19] = test system: Plasmodium falciparum; test: Antiplasmodial activity against blood stage of Plasmodium falciparum; type: functional, organism-based
[20] = test system: Plasmodium yoelii; test: Antiplasmodial activity against liver stage of Plasmodium yoelii; type: functional, organism-based
[21] = Oral bioavailability in mouse; type: ADME, organism-based; conditions: in vivo
[22] = test system: Plasmodium vinckei; test: Antimalarial activity against Plasmodium vinckei infected in ip dosed Swiss mouse at 0.5 to 1% parasitemia; type: functional
[23] = test system: Plasmodium vinckei; test: Antimalarial activity against Plasmodium vinckei infected in ip dosed Swiss mouse at 5 to 10% parasitemia; type: functional
[24] = test system: Plasmodium; test: Antimalarial activity against Plasmodium infected in ip dosed mouse; type: functional
[25] = test system: Plasmodium; test: Antiplasmodial activity against Plasmodium; type: functional
[26] = Half life in human; type: ADME, organism-based; conditions: in vivo
[27] = test system: Plasmodium berghei; test: Antimalarial activity against Plasmodium berghei str. ANKA infected in po dosed mouse assessed as reduction in parasitemia; type: functional
[28] = test system: Plasmodium falciparum; test: Antiplasmodial activity against erythrocytic stage of multidrug-resistant Plasmodium falciparum W2; type: functional, organism-based

C/C(=C1\CCOC(=O)S1)N(C=O)CCCCCCCCCCCCN(C=O)/C(C)=C1/CCOC(=O)S1
ED50 [1]: 5 mg/kg/day
bioavailability [2]: 15%

CCN(CC)Cc1cc(Nc2ccnc3cc(Cl)ccc23)ccc1O
EC50 [3]: 11 nM

COc1cc2c(NC3CCN(C)CC3)nc(N3CCCN(C)CC3)nc2cc1OCc1ccccc1
fold change (FC) [4]: 18
EC50 [3]: 100 nM

CSc1ccc2nc(N(Cc3cccnc3)C(=O)c3ccc(C(C)(C)C)cc3)sc2c1
EC50 [5]: 326 nM

CN1CCN(C2CCN(C(=O)CC3CCC4(CC3)OOC3(OO4)C4CC5CC(C4)CC3C5)CC2)CC1 (configuration not stated)
ED50 [6]: 1.8 mg/kg/day
IC50 [7]: 1.9 nM
IC50 [3]: 4.9 nM

CCc1nc(N)nc(N)c1OCCCOc1ccccc1CCC(=O)O.Cl
half-life [8]: 7.3 h
bioavailability [9]: 46%
ED50 [10]: 0.3 mg/kg/day
IC50 [11]: 56 nM
IC50 [12]: 4.6 nM

CCOc1ccc(F)cc1C1(O)C(N)=Nc2ccc(Cl)cc21 (configuration not stated)
ED99 [13]: 100 mg/kg/day
EC50 [14]: 28 nM
EC50 [15]: 65 nM

CC(=O)N1CCN(c2ccc(CN(C(=O)/C=C/c3ccc(C(F)(F)F)cc3)[C@@H](Cc3ccccc3)C(=O)N3CCN(Cc4ccc(N(C)CCO)cc4)CC3)cc2)CC1
ED90 [16]: 54 mg/kg/day
ED90 [17]: 8.4 mg/kg/day
EC50 [18]: 1 nM

C[C@H](NC(=O)[C@H](Cc1ccccc1)C[C@@H](O)[C@H](Cc1ccccc1)NC(=O)OC(C)(C)C)C(=O)N[C@@H]1C(=O)N(C)c2ccccc2-c2ccccc21
EC50 [19]: 17 nM
EC50 [20]: 7.8 nM

CN1CCN(C2CCN(C(=O)CC3CCC4(CC3)OOC3(OO4)C4CC5CC(C4)CC3C5)CC2)CC1.Cc1ccc(S(=O)(=O)O)cc1 (configuration not stated)
bioavailability [2]: 38%
bioavailability [21]: 42%

Cc1c(CCO)sc[n+]1CCCCCCCCCCCC[n+]1csc(CCO)c1C.[I-].[I-]
ED50 [22]: 1 mg/kg/day
ED50 [1]: 13 mg/kg/day
ED50 [23]: ≤ 0.5 mg/kg/day
ED50 [24]: 0.2 mg/kg/day
EC50 [25]: 2 nM
bioavailability [21]: 2%

CO[C@H]1O[C@@H]2O[C@@]3(C)CC[C@H]4[C@H](C)CC[C@@H]([C@H]1C)[C@@]24OO3
half-life [26]: 1 h

COc1cc2nc(N3CCCN(C)CC3)nc(NC3CCN(Cc4ccccc4)CC3)c2cc1OC
fold change (FC) [4]: 2
EC50 [3]: 75 nM

CC(C)(C)c1cc(C(=O)N2CCN(c3ncccc3C(F)(F)F)CC2)n(Cc2ccccc2)n1
EC50 [3]: 100 nM

O[C@@H](c1cc(C(F)(F)F)nc2c(C(F)(F)F)cccc12)[C@H]1CCCCN1 (relative stereo) [(S,R)-MEFLOQUINE]
half-life [26]: 336 h
ED50 [27]: 3.3 mg/kg
EC50 [28]: 7 nM

From ChEMBL document CHEMBL2385043, “Recent advances in malaria drug discovery” (Bioorg Med Chem Lett, 2013)
